The results in this text go back to US8399468B2, “Octahydro-pyrrolo[3,4-B]pyrrole derivatives” (Abbott Laboratories, priority 2006, dated 2013).

For the series the following is noted: compared with the 2-{4′-[(3aR,6aR)-5-methylhexahydropyrrolo[3,4-b]pyrrol-1(2H)-yl]-1,1′-biphenyl-4-yl}pyridazin-3(2H)-one compound.

On to `CN1C[C@H]2CCN(c3ccc(-c4ccc(-n5ncccc5=O)cc4)cc3)[C@H]2C1.O.O=C(O)C(O)C(O)C(=O)O` [L-tartrate monohydrate Form A salt, 2-{4′-[(3aR,6aR)-5-Methylhexahydropyrrolo[3,4-b]pyrrol-1(2H)-yl]-1,1′-biphenyl-4-yl}pyridazin-3(2H)-one L-tartrate monohydrate Form A], for which the relative oxidative stability entry was “better relative oxidative stability”.
